Laboratory results: PubChem BioAssay (NCI)
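96-well plates; 48 h exposure; 5 concentrations. Endpoints by linear interpolation between flanking doses. Not reached: highest tested concentration assigned. Abbreviation: GI50, concentration required for 50% inhibition of growth. TGI denotes the concentration required for complete inhibition of growth.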

Legend:
Experiment in all cases: DTP human tumour cell line panel, 48 h
[1] = system: HOP-92 NSCLC
[2] = system: SNB-19 CNS
[3] = system: OVCAR-4 ovarian
[4] = system: HL-60(TB) leukemia
[5] = system: UACC-257 melanoma
[6] = system: PC-3 prostate
[7] = system: TK-10 renal
[8] = system: SN12C renal
[9] = system: OVCAR-5 ovarian
[10] = system: CAKI-1 renal

## CN1CCC(COc2cnc(-c3cccc(Cn4nc(-c5cccc(C#N)c5)ccc4=O)c3)nc2)CC1
[1]
  GI50: 1.02 µM
  TGI: 12.6 µM
[2]
  GI50: 4.45 µM
  TGI: 25.7 µM
[3]
  GI50: 2 µM
  TGI: 5.32 µM
[4]
  GI50: 2 µM
  TGI: 4.02 µM
[5]
  GI50: 1.81 µM
  TGI: 3.52 µM
[6]
  GI50: 6.7 µM
  TGI: 31.8 µM
[7]
  GI50: 2.65 µM
  TGI: 6.15 µM
[8]
  GI50: 6.89 µM
  TGI: 19.6 µM
[9]
  GI50: 7.69 µM
  TGI: 27.5 µM
[10]
  GI50: 3.15 µM
  TGI: 13.8 µM

## CCOC(=O)C1=C(C)N=c2s/c(=C\c3ccccc3O)c(=O)n2C1c1ccc(OC)c2ccccc12 (stereo not given)
[1]
  GI50: 16.3 µM
  TGI: 35.9 µM
[2]
  GI50: 13.8 µM
  TGI: 67.9 µM
[3]
  GI50: 2.01 µM
  TGI: 5.18 µM
[4]
  GI50: 38.6 µM
  TGI: > 100 µM
[5]
  GI50: 31.8 µM
  TGI: > 100 µM
[6]
  GI50: 23.3 µM
  TGI: > 100 µM
[7]
  GI50: 11 µM
  TGI: 23.3 µM
[8]
  GI50: 17.6 µM
  TGI: 63.6 µM
[9]
  GI50: 17.1 µM
  TGI: > 100 µM
[10]
  GI50: 10 µM
  TGI: 25.9 µM

## O=C1/C(=C\c2ccc(F)cc2)CN(C(=O)c2ccccc2)C/C1=C\c1ccc(F)cc1
[1]
  GI50: 1.48 µM
  TGI: 9.1 µM
[2]
  GI50: 5.05 µM
  TGI: 20.8 µM
[3]
  GI50: 1.84 µM
  TGI: 18.1 µM
[4]
  GI50: 3.56 µM
  TGI: > 100 µM
[5]
  GI50: 2.41 µM
  TGI: 8.52 µM
[6]
  GI50: 2.08 µM
  TGI: 6.59 µM
[7]
  GI50: 4.21 µM
  TGI: 17.3 µM
[8]
  GI50: 3.02 µM
  TGI: 12.1 µM
[9]
  GI50: 2.64 µM
  TGI: 11.7 µM
[10]
  GI50: 2.82 µM
  TGI: 66.2 µM

## O=c1cc(-c2ccccc2)oc2ccc(OC/C(=N/O)c3ccccc3)cc12
[1]
  GI50: 25.2 µM
  TGI: > 50 µM
[2]
  GI50: 2.34 µM
  TGI: 35.2 µM
[3]
  GI50: 29 µM
  TGI: > 50 µM
[4]
  GI50: 2.12 µM
  TGI: > 50 µM
[5]
  GI50: 5.12 µM
  TGI: > 50 µM
[6]
  GI50: 2.46 µM
  TGI: 16.1 µM
[7]
  GI50: > 50 µM
  TGI: > 50 µM
[8]
  GI50: 2.79 µM
  TGI: 33.9 µM
[9]
  GI50: 43.8 µM
  TGI: > 50 µM
[10]
  GI50: 1.79 µM
  TGI: 16.2 µM

## CSC1=Nc2c(c(C)c(-c3ccccc3)n2CCCN2CCCCC2)C2=NC(=O)C[C@H](C)N12
[1]
  GI50: 4.1 µM
  TGI: 48.9 µM
[2]
  GI50: 3.08 µM
  TGI: > 94.6 µM
[3]
  GI50: 3.21 µM
  TGI: 37.7 µM
[4]
  GI50: 2.51 µM
  TGI: > 19.8 µM
[5]
  GI50: 4.37 µM
  TGI: 27.5 µM
[6]
  GI50: 2.01 µM
  TGI: 10.1 µM
[7]
  GI50: 3.98 µM
  TGI: > 30.6 µM
[8]
  GI50: 2.42 µM
  TGI: 20.9 µM
[9]
  GI50: 11.3 µM
  TGI: > 100 µM
[10]
  GI50: 12.1 µM
  TGI: 44.5 µM

## C[C@]12CC[C@@H]3c4cc(OC(F)F)c(O)cc4CC[C@H]3[C@@H]1CC[C@@H]2OS(N)(=O)=O
[1]
  GI50: 6.84 µM
  TGI: 79.2 µM
[2]
  GI50: 0.551 µM
  TGI: > 100 µM
[3]
  GI50: 15.8 µM
  TGI: 97.6 µM
[4]
  GI50: 0.313 µM
  TGI: 2.8 µM
[5]
  GI50: 16.7 µM
  TGI: 79.6 µM
[6]
  GI50: 0.729 µM
  TGI: 97.6 µM
[7]
  GI50: 14.6 µM
  TGI: > 92.5 µM
[8]
  GI50: 1.02 µM
  TGI: 70.5 µM
[9]
  GI50: 3.51 µM
  TGI: > 100 µM
[10]
  GI50: 0.548 µM
  TGI: > 70.2 µM

## Nc1nc2c(ncn2C2CCC(CO)O2)c(=O)n1C(=O)c1ccccc1 (stereo not given)
[1]
  TGI: > 100 µM
[2]
  TGI: > 100 µM
[3]
  TGI: > 100 µM
[4]
  TGI: > 100 µM
[5]
  TGI: > 100 µM
[6]
  TGI: > 100 µM
[7]
  TGI: > 100 µM
[8]
  TGI: > 100 µM
[9]
  TGI: > 100 µM
[10]
  TGI: > 100 µM

## CC[C@H]1CN2CCc3cc(OC)c(OC)cc3C2C[C@@H]1CC1NCCc2cc(OC)c(OC)cc21 (stereo not given in full)
[1]
  TGI: 0.0464 µM
[3]
  TGI: 0.0481 µM
[4]
  GI50: 0.0204 µM
  TGI: 0.144 µM
[5]
  TGI: 0.258 µM
[6]
  TGI: 0.275 µM
[7]
  TGI: 0.572 µM
[8]
  TGI: 0.289 µM
[9]
  TGI: 0.645 µM
[10]
  TGI: 0.292 µM

## O=C1CC[C@H](N2C(=O)c3cccc4c(Cc5ccc(CN6CCOCC6)cc5)ccc2c34)C(=O)N1
[1]
  GI50: 8.14 µM
  TGI: > 100 µM
[2]
  GI50: > 100 µM
  TGI: > 100 µM
[3]
  GI50: 21.9 µM
  TGI: > 100 µM
[4]
  GI50: 24.1 µM
  TGI: > 100 µM
[5]
  GI50: 22.5 µM
  TGI: > 100 µM
[6]
  GI50: 40.4 µM
  TGI: > 100 µM
[7]
  GI50: > 100 µM
  TGI: > 100 µM
[8]
  GI50: 63.4 µM
  TGI: > 100 µM
[9]
  GI50: > 100 µM
  TGI: > 100 µM
[10]
  GI50: 62.1 µM
  TGI: > 100 µM

## C=C(C)[C@@H]1CC[C@]2(COCCC#N)CC[C@]3(C)[C@H](CC[C@@H]4[C@@](C)(CCCNCCC#N)[C@H](C(=C)C)CC[C@]43C)[C@@H]12
[1]
  GI50: 7.03 µM
  TGI: 28.5 µM
[2]
  GI50: 26.4 µM
  TGI: > 50 µM
[3]
  GI50: 18 µM
  TGI: > 50 µM
[4]
  GI50: 8.47 µM
  TGI: 20.5 µM
[5]
  GI50: 19.8 µM
  TGI: > 50 µM
[6]
  GI50: 10.3 µM
  TGI: > 50 µM
[7]
  GI50: 16 µM
  TGI: > 50 µM
[8]
  GI50: 10 µM
  TGI: 29.2 µM
[9]
  GI50: 13.4 µM
  TGI: 44.1 µM
[10]
  GI50: 7.13 µM
  TGI: 15.6 µM

## OC(c1cc(-c2cccc(Cl)c2)nc2ccccc12)C1CCCCN1 (stereo not given)
[1]
  GI50: 1.12 µM
  TGI: 2.51 µM
[2]
  GI50: 1.95 µM
  TGI: 3.95 µM
[4]
  GI50: 1.72 µM
  TGI: 4.22 µM
[5]
  GI50: 1.85 µM
  TGI: 3.33 µM
[6]
  GI50: 1.4 µM
  TGI: 2.84 µM
[7]
  GI50: 2.12 µM
  TGI: 4.48 µM
[8]
  GI50: 2.17 µM
  TGI: 5.19 µM
[9]
  GI50: 1.62 µM
  TGI: 3.29 µM
[10]
  GI50: 1.24 µM
  TGI: 2.72 µM

## COC1=CC(c2ccc[nH]2)=N/C1=C\c1[nH]c(C)c(CC(=O)OCc2ccccc2)c1CCC(=O)OCc1ccccc1
[1]
  GI50: 0.231 µM
  TGI: 0.809 µM
[2]
  GI50: 1.72 µM
  TGI: > 100 µM
[3]
  GI50: 0.358 µM
  TGI: 17.6 µM
[4]
  GI50: 0.49 µM
  TGI: 2.66 µM
[5]
  GI50: 0.721 µM
  TGI: 3.1 µM
[6]
  GI50: 0.346 µM
  TGI: 12.6 µM
[7]
  GI50: 0.406 µM
  TGI: 2.1 µM
[9]
  GI50: 1.26 µM
  TGI: 6.12 µM
[10]
  GI50: 0.343 µM
  TGI: 2.21 µM

## Cc1c(O)c2ccccc2oc1=O
[1]
  TGI: > 100 µM
[2]
  TGI: > 100 µM
[3]
  TGI: > 100 µM
[4]
  TGI: > 100 µM
[5]
  TGI: > 100 µM
[6]
  TGI: > 100 µM
[8]
  TGI: > 100 µM
[9]
  TGI: > 100 µM
[10]
  TGI: > 100 µM
